{"source": "patent US20240374557A1", "about": "“BETA ADRENERGIC RECEPTOR COMPOSITIONS AND METHODS OF USE THEREOF” (THE BOARD OF REGENTS OF THE UNIVERSITY OF TEXAS SYSTEM, priority 2021, published 2024)", "key": {"[1]": {"test_system": "C57BL/6N mice on 42% high fat diet", "details": "4 weeks, compared to placebo; mirabegron 8 mg/kg daily, atenolol 60 mg/kg per day", "method": "(§1) In brief, three cohorts of male C57BL/6N mice, including a total of 100 mice, were used in these studies. Five-week-old mice were placed on a 42% high fat diet for 4 weeks. The treatments were provided for 4 weeks, during which time mice were maintained on the 42% high fat diet.\n(§2) Mirabegron, an ADRB3 agonist, was administered at an 8 mg/kg daily dose. Atenolol is an ADRB1 antagonist and was administered to the mice at, on average, 60 mg/kg per day. Mirabegron or its buffer (5% PEG 400; placebo) were administered to the mice daily by gavage for 4 weeks. Mice were also given ad libitum access to a water bottle or a water bottle containing atenolol. […] Oral glucose tolerance testing was performed on overnight fasted mice administered 5 μL 60% glucose solution per g BW using a gavage tube; blood glucose levels were determined with a glucometer using blood from tail nicks at times 0, 15, 30, 60 and 120 minutes. Blood pressure measurements were obtained using a CODA-HT8 High Throughput Noninvasive Blood Pressure system with 8 activated channels for use with mice and rats from Kent Scientific. Methods and statistical analysis were performed as described above."}, "[2]": {"test_system": "C57BL/6N mice on 42% high fat diet", "assay": "4-week treatment of high fat diet fed mice: body weight, body composition, cholesterol, oral glucose tolerance", "assay_type": "in vivo", "details": "compared to placebo", "method": "as §1, §2"}, "[3]": {"test_system": "Ad-Adrb1KO mice and littermate controls", "assay": "Co-administration of CL-316243 with insulin or glucose: blood glucose, plasma insulin, NEFA", "details": "for increase in plasma insulin levels: CL-316243 0.1 mg/kg co-administered with glucose, 30 minutes after vs before", "description": "(§3) Treatment with CL 316, 243. Mice were fasted for 2 hours (0800-1000) and then given an injection of the ADRB3 agonist CL 316,243 (“CL”, 0.001-1 mg/kg) or vehicle (saline). In some cohorts, human recombinant insulin (Eli Lilly) or D-glucose (Sigma 49163-100ML) was co-administrated with CL.\nEvaluation of insulin and NEFA levels. Blood from tail vein was collected before and 30 minutes after co-administration of CL with D-glucose into EDTA tubes. Plasma was isolated by centrifugation (4000 g×10 minutes at 4° C.). Plasma insulin (Mouse Ultrasensitive Insulin ELISA, ALPCO, 80-INSMSU-E01) and NEFA (FUJIFILM Wako Diagnostics-NEFA Reagent, 999-34691, 995-34791, 991-34891, 993-35191) levels were measured following manufacturer recommendations."}, "[4]": {"test_system": "ADRB3", "details": "cited from earlier work"}, "[5]": {"test_system": "Adrb1, Ppargc1a and Ucp1 mRNA expression in eWAT, iWAT and BAT", "assay": "Quantitative real-time PCR of adipose depots after CL-316243 injection", "assay_type": "in vivo, mice", "details": "CL-316243 0.1 mg/kg", "method": "Quantitative real-time PCR. […] Total mRNA was isolated from eWAT, iWAT and interscapular BAT using the Aurum™ Total RNA Fatty and Fibrous Tissue Kit (Bio-Rad, 732-6830). RNA concentration was estimated from absorbance at 260 nm. cDNA synthesis was performed using the iScript Advanced cDNA Synthesis Kit (Bio-Rad, 172-5038). mRNA extraction and cDNA synthesis were performed following the manufacturer's instructions. cDNA was diluted in DNase-free water before quantification by real-time PCR. Relative quantification of gene expression was performed on diluted cDNA in duplicate samples using a CFX384 Touch™ real-time PCR (Bio-Rad). Fold differences in targeted mRNA expression were calculated using the 2-delta cycle threshold method and data were normalized to beta-microglobulin (B2m) expression. TaqMan gene expression assays for Adrb1 (Mm00431701_s1), B2m (Mm00437762_m1), Ppargc1a (Mm01208835_m1), and Ucp1 (Mm01244861_m1) were purchased from ThermoFisher Scientific."}, "[6]": {"test_system": "Ad-Adrb1KO mice and littermate controls", "assay": "Blood glucose over 60 minutes after CL-316243 dose range", "details": "for reducing glycemia: 0.001 mg/kg", "description": "Tail vein blood glucose levels were then monitored using a glucometer (Bayer's Contour Blood Glucose Monitoring System.\nas §3"}, "[7]": {"test_system": "Ad-Adrb1KO mice and littermate controls", "assay": "Acute CL-316243 injection: body weight, blood glucose, BAT mass and BAT histology", "assay_type": "in vivo", "method": "Physiological relevance of crosstalk between ADRB1 and ADRB3 in adipocytes was assessed. […] Four hours after CL-316243 injection, mice were sacrificed and BAT depots were dissected.\nTreatment with CL 316, 243.\nHistology. […] Samples were then dehydrated, embedded in paraffin, and cut into […] sections. Sections were stained with hematoxylin and eosin (H&E) to perform general histology. All pictures were taken at a magnification of 20× on a Zeiss Axioskop 2 microscope connected to a digital camera (AxioCam; Zeiss, Thornwood, NY). Only the sharpness, contrast, and brightness were adjusted."}, "[8]": {"details": "4 weeks, mirabegron 8 mg/kg daily gavage, atenolol 60 mg/kg per day in water"}, "[9]": {"details": "every adipose depot, independent of the genotype"}, "[10]": {"details": "CL-316243 0.1 mg/kg, Ad-Adrb1KO mice"}}, "data": [{"smiles": "Nc1nc(CC(=O)Nc2ccc(CCNC[C@H](O)c3ccccc3)cc2)cs1", "note": "[mirabegron]", "values": [{"measurement": "diastolic blood pressure (DBP)", "setting": "[1]", "result": "elevated"}, {"measurement": "mean arterial blood pressure (MBP)", "setting": "[1]", "result": "elevated"}, {"measurement": "systolic blood pressure (SBP)", "setting": "[1]", "result": "elevated"}, {"measurement": "LDL cholesterol", "setting": "[2]; [8]", "result": "significant decreases"}, {"measurement": "epididymal fat mass", "setting": "[2]; [8]", "result": "significant decreases"}, {"measurement": "total body weight", "setting": "[2]; [8]", "result": "significant decreases"}, {"measurement": "total cholesterol", "setting": "[2]; [8]", "result": "significant decreases"}, {"measurement": "total fat mass", "setting": "[2]; [8]", "result": "significant decreases"}, {"measurement": "glucose tolerance (blood glucose area under the curve)", "setting": "[2]; oral glucose tolerance test after 4 weeks", "result": "significant improvements"}]}, {"smiles": "C[C@H](Cc1ccc2c(c1)OC(C(=O)[O-])(C(=O)[O-])O2)NC[C@H](O)c1cccc(Cl)c1.[Na+].[Na+]", "note": "[CL-316243, 5-[(2R)-2-[[(2R)-2-(3-Chlorophenyl)-2-hydroxyethyl]amino]propyl]-1,3-benzodioxole-2,2-dicarboxylic acid disodium salt]", "values": [{"measurement": "increase in plasma insulin levels", "setting": "[3]; Ad-Adrb1KO mice", "result": 43, "unit": "fold"}, {"measurement": "increase in plasma insulin levels", "setting": "[3]; littermate controls", "result": 12, "unit": "fold"}, {"measurement": "glucose clearance", "setting": "[3]; CL-316243 0.1 mg/kg co-administrated with glucose, Ad-Adrb1KO mice", "result": "drastically improved"}, {"measurement": "insulin sensitivity", "setting": "[3]; CL-316243 0.1 mg/kg in combination with insulin, Ad-Adrb1KO mice compared to control littermates", "result": "slight but significant improvement"}, {"measurement": "plasma NEFA levels between Ad-Adrb1KO mice and littermate controls", "setting": "[3]; CL-316243 co-administrated with glucose", "result": "no difference"}, {"measurement": "selectivity for ADRB3 over ADRB1 and ADRB2", "setting": "[4]", "result": "over 10000 fold"}, {"measurement": "EC50", "setting": "[4]; read-out: EC50 (ADRB3 agonist)", "result": 3, "unit": "nM"}, {"measurement": "Adrb1 mRNA expression (significantly reduced or not)", "setting": "[5]; BAT, littermate controls", "result": "not"}, {"measurement": "Adrb1 mRNA expression", "setting": "[5]; eWAT, littermate controls", "result": "significantly reduced"}, {"measurement": "Ppargc1a mRNA expression", "setting": "[5]; [9]", "result": "increase"}, {"measurement": "Ucp1 mRNA expression", "setting": "[5]; [9]", "result": "increase"}, {"measurement": "Adrb1 mRNA expression (significantly reduced or not)", "setting": "[5]; iWAT, littermate controls", "result": "not in iWAT"}, {"measurement": "reducing glycemia", "setting": "[6]; Ad-Adrb1KO mice", "result": "still effective"}, {"measurement": "reducing glycemia", "setting": "[6]; littermate controls", "result": "not littermate controls"}, {"measurement": "blood glucose", "setting": "[6]; both genotypes, even at low dose of 0.01 mg/kg, 60-minute period", "result": "glucose lowering effect"}, {"measurement": "BAT mass", "setting": "[7]; [10]", "result": "comparable to CL-316243-treated littermates"}, {"measurement": "CL-316243-induced mobilization of intracellular triglycerides in BAT", "setting": "[7]; [10]", "result": "markedly improved"}, {"measurement": "lipid droplets in H&E-stained BAT", "setting": "[7]; CL-316243 0.1 mg/kg, mice lacking Adrb1 in adipocytes", "result": "near-complete depletion"}, {"measurement": "weight of the mice", "setting": "[7]; acute CL-316243 0.1 mg/kg, Ad-Adrb1KO mice and littermate controls", "result": "did not significantly change"}, {"measurement": "efficiency to reduce blood glucose levels (treatment x genotype)", "setting": "[7]; acute CL-316243 0.1 mg/kg, Ad-Adrb1KO vs littermate controls", "result": "significant interaction"}]}]}
